Experiments:
D(2) dopamine receptor [1] = molecular target: T1, D(2) dopamine receptor (Homo sapiens, UniProt P14416); assay: Displacement of [3H]-N-methylspiperone from human dopmaine D2L receptor expressed in CHO cell membrane assessed as inhibition constant by competition binding assay; type: cell membranes
D(2) dopamine receptor [2] = molecular target: T1, D(2) dopamine receptor; assay: Displacement of [3H]-N-methylspiperone from human dopmaine D2S receptor expressed in CHO cell membrane assessed as inhibition constant by competition binding assay; type: cell membranes
D(3) dopamine receptor = D(3) dopamine receptor (Homo sapiens, UniProt P35462); assay: Displacement of [3H]-N-methylspiperone from human dopmaine D3 receptor expressed in HEK293T cells assessed as inhibition constant by competition binding assay; type: cell-based
D(4) dopamine receptor = molecular target: T2, D(4) dopamine receptor (Homo sapiens, UniProt P21917); assay: Displacement of [3H]-N-methylspiperone from human dopmaine D4.4 receptor expressed in HEK293T cells assessed as inhibition constant by competition binding assay; type: cell-based
T2 sequence (P21917 whole entry): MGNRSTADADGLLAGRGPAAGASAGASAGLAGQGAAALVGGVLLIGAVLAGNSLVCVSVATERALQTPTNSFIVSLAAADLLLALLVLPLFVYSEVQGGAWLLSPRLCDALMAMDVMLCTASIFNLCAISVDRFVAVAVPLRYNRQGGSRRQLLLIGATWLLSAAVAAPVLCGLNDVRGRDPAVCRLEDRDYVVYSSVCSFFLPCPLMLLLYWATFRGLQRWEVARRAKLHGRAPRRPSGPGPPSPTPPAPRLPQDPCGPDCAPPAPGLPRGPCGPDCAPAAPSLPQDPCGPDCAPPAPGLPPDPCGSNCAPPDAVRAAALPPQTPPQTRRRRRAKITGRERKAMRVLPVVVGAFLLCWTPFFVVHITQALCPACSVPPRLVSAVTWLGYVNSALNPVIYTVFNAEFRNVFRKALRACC

D(3) dopamine receptor, sequence (P35462 whole entry): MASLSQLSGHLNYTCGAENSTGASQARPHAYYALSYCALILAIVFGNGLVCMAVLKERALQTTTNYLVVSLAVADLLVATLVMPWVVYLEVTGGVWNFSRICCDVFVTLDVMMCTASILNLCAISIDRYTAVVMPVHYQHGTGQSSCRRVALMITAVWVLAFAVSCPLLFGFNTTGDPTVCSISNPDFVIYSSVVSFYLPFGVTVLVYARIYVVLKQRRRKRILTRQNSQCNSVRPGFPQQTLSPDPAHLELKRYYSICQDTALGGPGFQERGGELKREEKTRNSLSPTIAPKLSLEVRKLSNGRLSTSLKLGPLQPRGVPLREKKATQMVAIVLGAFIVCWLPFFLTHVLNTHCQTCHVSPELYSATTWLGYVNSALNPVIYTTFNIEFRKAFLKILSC
T1 sequence (P14416 whole entry): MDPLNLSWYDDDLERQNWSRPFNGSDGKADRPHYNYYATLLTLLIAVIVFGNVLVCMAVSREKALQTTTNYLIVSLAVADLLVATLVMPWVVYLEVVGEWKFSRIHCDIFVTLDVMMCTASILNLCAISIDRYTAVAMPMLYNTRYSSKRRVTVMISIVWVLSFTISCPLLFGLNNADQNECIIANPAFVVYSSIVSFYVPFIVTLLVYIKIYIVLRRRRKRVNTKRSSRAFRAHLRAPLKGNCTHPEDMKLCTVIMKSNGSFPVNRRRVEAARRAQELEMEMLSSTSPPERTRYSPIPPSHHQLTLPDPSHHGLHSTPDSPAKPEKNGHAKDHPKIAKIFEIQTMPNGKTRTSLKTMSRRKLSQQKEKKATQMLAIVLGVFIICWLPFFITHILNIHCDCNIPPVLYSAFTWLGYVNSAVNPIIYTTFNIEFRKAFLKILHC

Compound	Ki (D(2) dopamine receptor [1]) [nM]	Ki (D(2) dopamine receptor [2]) [nM]	Ki (D(3) dopamine receptor) [nM]	Ki (D(4) dopamine receptor) [nM]
COc1ccccc1N1CCN(CCCNC(=O)NCc2ccccc2-c2ccc(F)cc2)CC1	210	75	99	5.3
COc1ccccc1N1CCN(CCCNC(=O)NCc2ccccc2-c2ccc(C(C)C)cc2)CC1	400	170	190	36
C#CCOc1ccc(NC(=O)NCCCN2CCN(c3ccccc3OC)CC2)c(-c2ccccc2)c1	86	46	39	3.5
COc1ccc(NC(=O)NCCCN2CCN(c3ccccc3OC)CC2)cc1-c1ccc(F)cc1	89	53	66	5.8
COc1ccccc1N1CCN(CCCNC(=O)Nc2ccccc2-c2ccc(C(C)C)cc2)CC1	150	90	34	–
COc1ccccc1N1CCN(CCCNC(=O)NCc2cccc(F)c2-c2ccccc2)CC1	–	–	62	1.1
COc1cccc(-c2ccccc2CNC(=O)NCCCN2CCN(c3ccccc3OC)CC2)c1	220	88	75	13
COc1ccccc1N1CCN(CCCNC(=O)NCc2cc(F)ccc2-c2ccccc2)CC1	88	38	150	4.6
COc1ccccc1N1CCN(CCCNC(=O)Nc2ccccc2-c2cccc(F)c2)CC1	170	110	23	4
COc1ccc(CNC(=O)NCCCN2CCN(c3ccccc3OC)CC2)c(-c2ccccc2)c1	160	37	92	3.1

Second part, the compound after the results:

Ki (D(2) dopamine receptor [1]) [nM]	Ki (D(2) dopamine receptor [2]) [nM]	Ki (D(3) dopamine receptor) [nM]	Ki (D(4) dopamine receptor) [nM]	Compound
140	31	29	–	COc1ccccc1N1CCN(CCCNC(=O)Nc2ccc(F)cc2-c2ccccc2)CC1
86	67	210	3.1	COc1ccccc1N1CCN(CCCNC(=O)NCc2ccccc2-c2cccc(F)c2)CC1
460	290	370	15	COc1ccccc1N1CCN(CCCNC(=O)NCc2ccccc2-c2ccc(-c3ccccc3)cc2)CC1
120	110	24	10	COc1cccc(-c2ccccc2NC(=O)NCCCN2CCN(c3ccccc3OC)CC2)c1
340	130	22	110	COc1ccccc1N1CCN(CCCNC(=O)Nc2ccc(-c3ccccc3)cc2)CC1
120	78	70	30	COc1ccccc1N1CCN(CCCNC(=O)Nc2ccccc2-c2ccc(C(C)(C)C)cc2)CC1
210	140	73	–	COc1ccccc1N1CCN(CCCNC(=O)NCc2c(F)cccc2-c2ccccc2)CC1
110	62	89	4.2	COc1ccccc1N1CCN(CCCNC(=O)NCc2ccccc2-c2ccc(C)cc2)CC1
46	18	26	7.2	COc1ccccc1N1CCN(CCCNC(=O)Nc2cccc(-c3ccccc3)c2)CC1
73	40	99	2.7	COc1ccccc1N1CCN(CCCNC(=O)NCc2ccc(F)cc2-c2ccccc2)CC1
